Test results taken from US11197836B2, “Topical vasoconstrictor preparations and methods for protecting cells during cancer chemotherapy and radiotherapy” (WISCONSIN ALUMNI RESEARCH FOUNDATION, priority 2005, dated 2021).
One block for each molecule: values may come before it.

How the values were obtained:
[1] = Dissolution and 24 hr solution status of vasoconstrictor salts in ethanol:PG:water diluents, Example 6; format: physicochemical
Protocol: Aliquots of each vasoconstrictor salt were weighed into glass test tubes. The volume of liquid necessary to achieve the indicated final drug concentration was then added.
(§1) The approximate amount of heat required to dissolve the vasoconstrictor salt in each diluent is indicated. Once diluted, samples were sealed and held at room temperature (22° C.) for 24 hours and then at 4° C. for 24 hours. Skin blanch induced by the topical formulation was assessed by applying freshly made, clear formulation to human skin shortly after initial mixing. Drug solutions were monitored for the appearance of precipitated material over a 48 hour observation period.

[2] = tested on: radiation-induced alopecia; conditions: 950 mM in 50:30:20 ethanol:PG:water, 10 day old rats
Protocol: At specific time points, digital images were recorded to show areas of skin blanch in the epi-treated rats.

[3] = tested on: radiation-induced oral mucositis; test: Radiation-induced oral mucositis in hamster cheek pouch, Example 16; conditions: for mucosal pathology: hamster cheek pouch
human oral mucosa = tested on: human oral mucosa
Protocol: A QTip wetted with the 1 mM solution was used to swab the lower lip and oral mucosa adjoining the lower lip during the first 20 min. […] Images were taken and then scored for the degree of mucosal blanch observed.

human skin = test: Human skin blanch 20 min after topical application, Example 6; format: in vivo; conditions: for Skin Blanch: 600 mM, human skin, 20 min after topical application
Protocol: as §1

human forearm skin = test: Human forearm skin blanch and irritation with permeation enhancers, Example 8; format: in vivo; conditions: water
Protocol: In samples where a clear, norepinephrine-containing solution was achieved, an aliquot (˜100 μl) was applied to a ˜1 cm^2 area of human forearm skin using a cotton swab. The extent of skin blanch (i.e., dermal vasculature constriction) beneath the application site was visually scored over the 60 min following application.

[4] = 50:30:20 Ethanol:PG:water, 750 mM
[5] = 15:30:55 Ethanol:PG:water, 1000 mM
[6] = 20:30:50 Ethanol:PG:water, 1500 mM
[7] = 60:0:40 isopropanol:PG:water, 1500 mM
[8] = 10 mM topical, human lip and oral mucosa
[9] = 0:50:50 Ethanol:PG:water, 1800 mM
[10] = 0:80:20 Ethanol:PG:water, 1800 mM
[11] = 12:30:58 Ethanol:PG:water, 450 mM
[12] = 12:30:58 Ethanol:PG:water, 600 mM
[13] = 12:30:58 Ethanol:PG:water, 750 mM
[14] = 15:30:55 Ethanol:PG:water, 600 mM
[15] = 33:33:33 Ethanol:PG:water, 1800 mM
[16] = 40:25:35 Ethanol:PG:water, 600 mM
[17] = 40:30:30 Ethanol:PG:water, 300 mM
[18] = 44:18:33 Ethanol:PG:water, 600 mM
[19] = 45:25:30 Ethanol:PG:water, 300 mM
[20] = 45:25:30 Ethanol:PG:water, 600 mM
[21] = 50:20:30 Ethanol:PG:water, 600 mM
[22] = 50:25:25 Ethanol:PG:water, 600 mM
[23] = 50:30:20 Ethanol:PG:water, 600 mM
[24] = 55:20:25 Ethanol:PG:water, 600 mM
[25] = 60:20:20 Ethanol:PG:water, 600 mM
[26] = 10:30:60 Ethanol:PG:water, 4000 mM
[27] = 10:30:60 Ethanol:PG:water, 5000 mM
[28] = 10:30:60 Ethanol:PG:water, 5500 mM
[29] = 12:30:58 Ethanol:PG:water, 3300 mM
[30] = 15:30:55 Ethanol:PG:water, 500 mM

SMILES: COc1ccc(OC)c(C(O)C(C)N)c1 (stereo not drawn) [Methoxamine]
potency to induce skin blanch (human skin; applied to unbroken human skin): lacks the potency to adequately induce skin blanch

SMILES: CNC[C@H](O)c1cccc(O)c1.Cl [PhE, R (−) phenylephrine-HCl]
Heat required to completely dissolve vasoconstrictor salt (#secs. at 100° C.) [1, 26]: 12 s
Sample status after 24 hr at 4° C. [1, 26]: precipitate
Sample status after 24 hr at ~22° C. [1, 26]: precipitate
Heat required to completely dissolve vasoconstrictor salt (#secs. at 100° C.) [1, 27]: 12 s
Sample status after 24 hr at 4° C. [1, 27]: precipitate
Sample status after 24 hr at ~22° C. [1, 27]: precipitate
Heat required to completely dissolve vasoconstrictor salt (#secs. at 100° C.) [1, 28]: 16 s
Sample status after 24 hr at 4° C. [1, 28]: precipitate
Sample status after 24 hr at ~22° C. [1, 28]: precipitate
Heat required to completely dissolve vasoconstrictor salt (#secs. at 100° C.) [1, 29]: 8 s
Sample status after 24 hr at 4° C. [1, 29]: precipitate
Sample status after 24 hr at ~22° C. [1, 29]: precipitate
Heat required to completely dissolve vasoconstrictor salt (#secs. at 100° C.) [1, 30]: 8 s
Sample status after 24 hr at 4° C. [1, 30]: precipitate
Sample status after 24 hr at ~22° C. [1, 30]: clear

Further lines, with some results ahead:

Heat required to completely dissolve vasoconstrictor salt (#secs. at 100° C.) [1, 4]: 0 s
Sample status after 24 hr at 4° C. [1, 4]: clear
Sample status after 24 hr at ~22° C. [1, 4]: clear
SMILES: CNC[C@H](O)c1ccc(O)c(O)c1.Cl (racemic) [Epi (±), (±) epinephrine-HCl]
skin blanch in treated skin field ([2]; by 120 min): single blanched field
coat protection on day 20 ([2]; four applications, 7.5 Gy whole-body γ radiation): confluent area of protected coat

Heat required to completely dissolve vasoconstrictor salt (#secs. at 100° C.) [1, 5]: 0 s
Sample status after 24 hr at 4° C. [1, 5]: clear
Sample status after 24 hr at ~22° C. [1, 5]: clear
Heat required to completely dissolve vasoconstrictor salt (#secs. at 100° C.) [1, 6]: 0 s
Sample status after 24 hr at 4° C. [1, 6]: clear
Sample status after 24 hr at ~22° C. [1, 6]: clear
Heat required to completely dissolve vasoconstrictor salt (#secs. at 100° C.) [1, 7]: 0 s
Sample status after 24 hr at 4° C. [1, 7]: clear
Sample status after 24 hr at ~22° C. [1, 7]: clear
mucosal pathology ([3]; large excess doses combined with 24 min of irradiation (40 Gy)): severe mucosal pathology
mucosal pathology ([3]; large excess doses without irradiation): no discernible mucosal pathology
SMILES: CNC[C@H](O)c1ccc(O)c(O)c1.O=C(O)C(O)C(O)C(=O)O [Epi, L (−) epinephrine-tartrate]
topical concentration completely protective against γ radiation-induced pathology ([3]; hamster cheek pouch mucosal surface): 400 μM
blanch response (human oral mucosa; 1 mM solution swabbed on lower lip and oral mucosa during first 20 min, human): little blanch response
duration of blanching (human oral mucosa; 10 mM topical, four times over 50 min, human lip and oral mucosa): 1.5 to 2 h
time to clear blanching of lip and mucosa (human oral mucosa; [8]): ≤ 20 min
time to normal color lip and mucosa (human oral mucosa; [8]): ≤ 3 h

Heat required to completely dissolve vasoconstrictor salt (#secs. at 100° C.) [1, 9]: 6 s
Sample status after 24 hr at 4° C. [1, 9]: precipitate
Sample status after 24 hr at ~22° C. [1, 9]: precipitate
Heat required to completely dissolve vasoconstrictor salt (#secs. at 100° C.) [1, 10]: 24 s
Sample status after 24 hr at 4° C. [1, 10]: precipitate
Sample status after 24 hr at ~22° C. [1, 10]: precipitate
Heat required to completely dissolve vasoconstrictor salt (#secs. at 100° C.) [1, 11]: 0 s
Sample status after 24 hr at 4° C. [1, 11]: clear
Sample status after 24 hr at ~22° C. [1, 11]: clear
Heat required to completely dissolve vasoconstrictor salt (#secs. at 100° C.) [1, 12]: 0 s
Sample status after 24 hr at 4° C. [1, 12]: clear
Sample status after 24 hr at ~22° C. [1, 12]: clear
Heat required to completely dissolve vasoconstrictor salt (#secs. at 100° C.) [1, 13]: 0 s
Sample status after 24 hr at 4° C. [1, 13]: clear
Sample status after 24 hr at ~22° C. [1, 13]: clear
Heat required to completely dissolve vasoconstrictor salt (#secs. at 100° C.) [1, 14]: 0 s
Sample status after 24 hr at 4° C. [1, 14]: clear
Sample status after 24 hr at ~22° C. [1, 14]: clear
Heat required to completely dissolve vasoconstrictor salt (#secs. at 100° C.) [1, 5]: 0 s
Sample status after 24 hr at 4° C. [1, 5]: clear
Sample status after 24 hr at ~22° C. [1, 5]: clear
Heat required to completely dissolve vasoconstrictor salt (#secs. at 100° C.) [1, 15]: 18 s
Sample status after 24 hr at 4° C. [1, 15]: precipitate
Sample status after 24 hr at ~22° C. [1, 15]: precipitate
Heat required to completely dissolve vasoconstrictor salt (#secs. at 100° C.) [1, 16]: 2 s
Sample status after 24 hr at 4° C. [1, 16]: clear
Sample status after 24 hr at ~22° C. [1, 16]: clear
Heat required to completely dissolve vasoconstrictor salt (#secs. at 100° C.) [1, 17]: 2 s
Sample status after 24 hr at 4° C. [1, 17]: clear
Sample status after 24 hr at ~22° C. [1, 17]: clear
Heat required to completely dissolve vasoconstrictor salt (#secs. at 100° C.) [1, 18]: 2 s
Sample status after 24 hr at 4° C. [1, 18]: clear
Sample status after 24 hr at ~22° C. [1, 18]: clear
Heat required to completely dissolve vasoconstrictor salt (#secs. at 100° C.) [1, 19]: 2 s
Sample status after 24 hr at 4° C. [1, 19]: clear
Sample status after 24 hr at ~22° C. [1, 19]: clear
Heat required to completely dissolve vasoconstrictor salt (#secs. at 100° C.) [1, 20]: 2 s
Sample status after 24 hr at 4° C. [1, 20]: clear
Sample status after 24 hr at ~22° C. [1, 20]: clear
Heat required to completely dissolve vasoconstrictor salt (#secs. at 100° C.) [1, 21]: 1 s
Sample status after 24 hr at 4° C. [1, 21]: clear
Sample status after 24 hr at ~22° C. [1, 21]: clear
Heat required to completely dissolve vasoconstrictor salt (#secs. at 100° C.) [1, 22]: 1 s
Sample status after 24 hr at 4° C. [1, 22]: clear
Sample status after 24 hr at ~22° C. [1, 22]: clear
Heat required to completely dissolve vasoconstrictor salt (#secs. at 100° C.) [1, 23]: 1 s
Sample status after 24 hr at 4° C. [1, 23]: clear
Sample status after 24 hr at ~22° C. [1, 23]: clear
Heat required to completely dissolve vasoconstrictor salt (#secs. at 100° C.) [1, 24]: 1 s
Sample status after 24 hr at 4° C. [1, 24]: precipitate
Sample status after 24 hr at ~22° C. [1, 24]: precipitate
Heat required to completely dissolve vasoconstrictor salt (#secs. at 100° C.) [1, 25]: 2 s
Sample status after 24 hr at 4° C. [1, 25]: clear
Sample status after 24 hr at ~22° C. [1, 25]: clear
SMILES: NC[C@H](O)c1ccc(O)c(O)c1.O=C(O)C(O)C(O)C(=O)O [Nep, L (−) norepinephrine-tartrate]
Skin Irritation (human forearm skin; 300 mM Nep): No
Skin Irritation (human forearm skin; 300 mM Nep, 0.8% SLS): No
Skin Blanch (human forearm skin; 300 mM Nep, 0.8% SLS, 20 min): 0
Skin Blanch (human forearm skin; 300 mM Nep, 20 min after topical application): 0
Skin Irritation (human forearm skin; 300 mM Nep, ethanol): No
Skin Irritation (human forearm skin; 300 mM Nep, ethanol, 0.8% SLS): Slight
Skin Irritation (human forearm skin; 300 mM Nep, ethanol, 5% Menthone): Slight
Skin Irritation (human forearm skin; 300 mM Nep, ethanol, PG): No
Skin Irritation (human forearm skin; 300 mM Nep, ethanol, PG, 0.3% SLS): No
Skin Irritation (human forearm skin; 300 mM Nep, ethanol, PG, 0.3% SLS, 5% Menthone): Yes
Skin Blanch (human forearm skin; 300 mM Nep, ethanol, PG, 0.3% SLS, 5% Menthone, 20 min): +++++ (+++++ = 90-100% blanch)
Skin Irritation (human forearm skin; 300 mM Nep, ethanol, PG, 5% Methone): No
Skin Irritation (human forearm skin; 300 mM Nep, ethanol, Transcutol): No
Skin Irritation (human forearm skin; 300 mM Nep, ethanol, Transcutol, 0.4% SLS): No
Skin Irritation (human forearm skin; 600 mM NEp, ethanol, PG): No
Skin Blanch (human forearm skin; 600 mM NEp, ethanol, PG, 20 min): +++++ (+++++ = 90-100% blanch)
Skin Irritation (human forearm skin; 750 mM NEp, ethanol, PG): No
Skin Blanch (human forearm skin; 750 mM NEp, ethanol, PG, 20 min): +++++ (+++++ = 90-100% blanch)
Skin Blanch (human skin; 55:20:25 Ethanol:PG:water): +++++ (+++++ = 90-100% blanch)
Skin Blanch (human skin; 60:20:20 Ethanol:PG:water): +++++ (+++++ = 90-100% blanch)
